Molecular target: T1, SARM1 (50-724) (Homo sapiens, UniProt Q6SZW1)
T1 construct: Purified SARM1 (50-724) with a final concentration of 2 nM was pre-incubated with a test compound
T1 sequence (Q6SZW1 50-724): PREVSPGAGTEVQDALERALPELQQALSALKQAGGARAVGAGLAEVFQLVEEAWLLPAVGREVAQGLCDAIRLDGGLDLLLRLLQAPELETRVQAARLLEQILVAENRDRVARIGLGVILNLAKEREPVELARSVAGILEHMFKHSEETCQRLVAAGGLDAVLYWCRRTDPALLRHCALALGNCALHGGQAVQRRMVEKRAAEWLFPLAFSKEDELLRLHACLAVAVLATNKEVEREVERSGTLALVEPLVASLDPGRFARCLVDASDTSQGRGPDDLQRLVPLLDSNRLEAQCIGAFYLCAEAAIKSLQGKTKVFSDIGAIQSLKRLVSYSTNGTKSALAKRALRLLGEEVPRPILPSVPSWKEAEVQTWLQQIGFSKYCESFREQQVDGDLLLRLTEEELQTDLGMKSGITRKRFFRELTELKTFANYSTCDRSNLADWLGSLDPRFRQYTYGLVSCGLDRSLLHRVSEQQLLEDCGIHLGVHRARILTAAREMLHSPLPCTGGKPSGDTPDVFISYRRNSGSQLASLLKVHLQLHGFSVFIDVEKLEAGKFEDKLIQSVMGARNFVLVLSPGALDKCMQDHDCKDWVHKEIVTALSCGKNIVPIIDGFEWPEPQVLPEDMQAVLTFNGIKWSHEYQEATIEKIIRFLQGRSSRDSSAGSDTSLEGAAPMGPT
Test: SARM1 (50-724) enzymatic assay (LC-MS/MS)
Type: biochemical
Settings: Purified SARM1 (50-724) 2 nM, NMN as activator, NAD+ as substrate, 1 h at room temperature, read-out: IC50 (SARM1 inhibitory activity)
How it was run: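 Human SARM1 (50-724), 2 nM, pre-incubated 15 min at room temperature with compound in Dulbecco's PBS. Reaction started with 200 µM NMN (activator) plus […] NAD^+ substrate, run 1 h at room temperature, quenched with 70% acetonitrile. Turnover quantified by LC-MS/MS; IC50 reported.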

Question: With FC(F)(F)Oc1ccc(OC2COC2)cc1-n1cnnc1-c1nc2cc(C(F)(F)F)ccc2[nH]1 [Compound 271, 2-(4-(5-(oxetan-3-yloxy)-2-(trifluoromethoxy)phenyl)-4H-1,2,4-triazol-3-yl)-5-(trifluoromethyl)-1H-benzo[d]imidazole] as the molecule, how does the IC50 read?
Answer: ≤ 100 nM

Question: Cc1ccc2[nH]c(-c3ccnn3C3CCCC3)nc2c1 [Compound 4, 2-(2-cyclopentylpyrazol-3-yl)-5-methyl-1H-benzimidazole] was tested. Which IC50 did it give?
Answer: 500 to 1000 nM

Question: CN(CCCC(N)=O)c1cc(F)c2[nH]c(-c3nncn3-c3cnccc3C(F)(F)F)nc2c1 [Compound 455, 4-((4-fluoro-2-(4-(4-(trifluoromethyl)pyridin-3-yl)-4H-1,2,4-triazol-3-yl)-1H-benzo[d]imidazol-6-yl)(methyl)amino)butanamide] was tested. Which IC50 did it give?
Answer: ≤ 100 nM

Question: Which IC50 does the source give for CC1(c2ccc3[nH]c(-c4nncn4-c4cccc(F)c4Cl)nc3c2)CS(=O)(=O)C1 [Compound 178, 3-(2-(4-(2-chloro-3-fluorophenyl)-4H-1,2,4-triazol-3-yl)-1H-benzo[d]imidazol-5-yl)-3-methylthietane 1,1-dioxide] here?
Answer: 100 to 500 nM

Question: With Clc1cccc(-n2cnnc2-c2nc3cc(C4CCCO4)ccc3[nH]2)c1Cl (stereo not drawn) [Compound 136, 2-(4-(2,3-dichlorophenyl)-4H-1,2,4-triazol-3-yl)-5-(tetrahydrofuran-2-yl)-1H-benzo[d]imidazole] as the molecule, how does the IC50 read?
Answer: ≤ 100 nM

Question: With COc1ccc(-c2cccc(Cl)c2Cl)c(-c2nc3cc(C(F)(F)F)ccc3[nH]2)n1 [Example 60] as the molecule, how does the IC50 read?
Answer: > 1000 nM

Question: Which IC50 does the source give for FC(F)(F)c1ccc2[nH]c(C3=C(c4ccccc4Cl)CSC3)nc2c1 [Compound 335, 2-(4-(2-chlorophenyl)-2,5-dihydrothiophen-3-yl)-5-(trifluoromethyl)-1H-benzo[d]imidazole] here?
Answer: 500 to 1000 nM

Question: How did the IC50 turn out when Cn1cc(Cl)c(-n2cnnc2-c2nc3cc(C(F)(F)F)ccc3[nH]2)cc1=O [Compound 173, 5-chloro-1-methyl-4-(3-(5-(trifluoromethyl)-1H-benzo[d]imidazol-2-yl)-4H-1,2,4-triazol-4-yl)pyridin-2(1H)-one] was run?
Answer: 100 to 500 nM

Question: How did the IC50 turn out when N#Cc1c(-c2cnccc2-c2cccc(Cl)c2Cl)[nH]c2ccc(C(F)(F)F)cc12 [Example 47, 2-(4-(2,3-dichlorophenyl)pyridin-3-yl)-5-(trifluoromethyl)-1H-indole-3-carbonitrile] was run?
Answer: ≤ 100 nM

Question: Which IC50 does the source give for COC(=O)C(C)c1ccc2[nH]c(-c3nncn3-c3cccc(Cl)c3Cl)nc2c1 (stereo not drawn) [Example 101, methyl 2-(2-(4-(2,3-dichlorophenyl)-4H-1,2,4-triazol-3-yl)-1H-benzo[d]imidazol-5-yl)propanoate] here?
Answer: ≤ 100 nM

Question: How did the IC50 turn out when Fc1cc(C(F)(F)F)cc2nc(-c3nncn3-c3cc(Cl)ncc3OC(F)(F)F)[nH]c12 [Compound 218, 2-(4-(2-chloro-5-(trifluoromethoxy)pyridin-4-yl)-4H-1,2,4-triazol-3-yl)-7-fluoro-5-(trifluoromethyl)-1H-benzo[d]imidazole] was run?
Answer: ≤ 100 nM

Question: Which IC50 does the source give for Oc1ccc(Cl)c(-n2cnnc2-c2nc3cc(C(F)(F)F)ccc3[nH]2)n1 [Example 115] here?
Answer: ≤ 100 nM

Question: With N#CC1CC1c1ccc2[nH]c(-c3nncn3-c3cnccc3C(F)(F)F)nc2c1F (stereo not drawn) [Compound 320, 2-(4-fluoro-2-(4-(4-(trifluoromethyl)pyridin-3-yl)-4H-1,2,4-triazol-3-yl)-1H-benzo[d]imidazol-5-yl)cyclopropane-1-carbonitrile] as the molecule, how does the IC50 read?
Answer: ≤ 100 nM

Question: How did the IC50 turn out when FC1(F)CN(c2c(Cl)ccc3[nH]c(-c4nncn4-c4cnccc4C(F)(F)F)nc23)C1 [Compound 358, 5-chloro-4-(3,3-difluoroazetidin-1-yl)-2-(4-(4-(trifluoromethyl)pyridin-3-yl)-4H-1,2,4-triazol-3-yl)-1H-benzo[d]imidazole] was run?
Answer: 100 to 500 nM

Question: Which IC50 does the source give for CC1(c2cc(F)c3[nH]c(-c4nncn4-c4cnccc4C(F)(F)F)nc3c2)COC1 [Compound 290, 7-fluoro-5-(3-methyloxetan-3-yl)-2-(4-(4-(trifluoromethyl)pyridin-3-yl)-4H-1,2,4-triazol-3-yl)-1H-benzo[d]imidazole] here?
Answer: ≤ 100 nM
